Experiments:
[1] = urinary mannitol clearance after inhaled mannitol in human subjects; format: in vivo; settings: 635 mg inhaled mannitol; urine over 24 hours, mass spectrometry; 6 subjects with asthma symptoms vs 2 healthy controls
From the text: Results are expressed as urinary mannitol clearance, or the concentration in the urine samples collected multiplied by the amount of urine produced. […] The horizontal bar indicates mean values.

[2] = parameters: species or system C57BL/6 mice; settings: mouse, in vivo
From the text: In this experiment, 6-8 week old C57BL/6 mice were infected with a clinical isolate of RSV 9 (strain A2) intranasally (i.n.) on day 0 (d0), and then challenged with orally inhaled mannitol on days 2 and 4 as indicated by the arrows in the schematic (top of figure). Two hours after each mannitol inhalation, urine was collected from mice by scruffing, and analyzed for mannitol using a colorimetric assay. They are expressed as fold change in urine mannitol relative to uninfected control mice on d0, which was set at 1. Data are mean±standard error of the mean, of n=5-6 mice per group. * indicated p<0.05.

16HBE cells = assay: flux of mannitol across human bronchial epithelial monolayers; format: in vitro ADME; settings: 16HBE cells confluent on semipermeable membrane; lower chamber after 1 hour, colorimetric assay; unstimulated or PolyI:C pretreated 18 hours
Procedure: The x-axis indicates the concentration of mannitol applied to the upper chamber of 16HBE cells grown to confluence on a semipermeable membrane. The y-axis indicates the concentration of mannitol detected in the lower chamber after 1 hour, determined using a colorimetric assay (where OD refers to optical density). 16HBE cells were either unstimulated (open bars) or pretreated with the viral mimetic PolyI:C (closed bars) for 18 hours prior to analysis of mannitol permeability. Note that in both unstimulated and PolyI:C-stimulated cells, the mannitol concentration detected in the lower chamber increased steadily with the concentration of mannitol applied to the top chamber (i.e. there was no plateau). This is indicative of movement across the monolayer via paracellular routes (as opposed to receptor mediated transport, for example).

OC[C@@H](O)[C@@H](O)[C@H](O)[C@H](O)CO [mannitol]
urinary mannitol clearance [1]: Subjects with asthma symptoms had higher mannitol clearance on average | excretion of orally inhaled mannitol (fold change in urine mannitol relative to uninfected control mice on d0) [2]: higher in mice infected with respiratory syncytial virus (RSV) infection | flux of mannitol across the monolayer (16HBE cells): non-saturable
